Experimental data reported in the supplement of paper PMC4862054.

Columns and labels:
Conditions in all cases: incubation time: 72 h
BT-474 [1] = test: normalised response (% of control), CellTox Green; higher = less cell death (100 = DMSO, 0 = benzethonium chloride kill control)
How it was run: (§1)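 Breast cancer cell lines, seeded at 20 µl suspension per well, were incubated for 72 h in 384-well plates containing compound at 5 concentrations. These concentrations rose in 10-fold steps over a 10,000-fold range set for each compound. CellTox Green fluorescence (485/520 nm) was read, then CellTiter-Glo luminescence after 10 min at room temperature, and each plate was normalised to 0.1 % DMSO (100) and a positive kill control (0). Values are normalised signals, each at one concentration.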

BT-549 [2] = test: as above
How it was run: as §1

CAL-120 [3] = test: as above
How it was run: as §1

CAL-148 [4] = test: as above
How it was run: as §1

CAL-51 [5] = test: as above
How it was run: as §1

CAL-85-1 [6] = test: as above
How it was run: as §1

DU-4475 [7] = test: as above
How it was run: as §1

HCC1143 [8] = test: as above
How it was run: as §1

HCC1599 [9] = test: as above
How it was run: as §1

HDQ-P1 [10] = test: as above
How it was run: as §1

Hs578T [11] = test: as above
How it was run: as §1

MCF-10A [12] = test: as above
How it was run: as §1

MDA-MB-231 [13] = test: as above
How it was run: as §1

MDA-MB-436 [14] = test: as above
How it was run: as §1

MDA-MB-453 [15] = test: as above
How it was run: as §1

MDA-MB-468 [16] = test: as above
How it was run: as §1

MFM-223 [17] = test: as above
How it was run: as §1

BT-474 [18] = test: normalised response (% of control), CellTiter-Glo; higher = more viable cells (100 = DMSO, 0 = benzethonium chloride kill control)
Procedure: (§2)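 DSRT, 72 h incubation, CellTox Green / CellTiter-Glo readout. Signal is normalised to DMSO and benzethonium chloride controls. Value is the normalised response at dose 3.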

BT-549 [19] = test: as above
Procedure: as §2

CAL-120 [20] = test: as above
Procedure: as §2

CAL-148 [21] = test: as above
Procedure: as §2

CAL-51 [22] = test: as above
Procedure: as §2

CAL-85-1 [23] = test: as above
Procedure: as §2

DU-4475 [24] = test: as above
Procedure: as §2

HCC1143 [25] = test: as above
Procedure: as §2

HCC1599 [26] = test: as above
Procedure: as §2

HCC1937 [27] = test: as above
Procedure: as §2

HDQ-P1 [28] = test: as above
Procedure: as §2

Hs578T [29] = test: as above
Procedure: as §2

MCF-10A [30] = test: as above
Procedure: as §2

MDA-MB-231 [31] = test: as above
Procedure: as §2

MDA-MB-436 [32] = test: as above
Procedure: as §2

MDA-MB-453 [33] = test: as above
Procedure: as §2

MDA-MB-468 [34] = test: as above
Procedure: as §2

MFM-223 [35] = test: as above
Procedure: as §2

SK-BR-3 = test: as above
Procedure: as §2

HCC1937 [36] = test: normalised response (% of control), CellTox Green; higher = less cell death (100 = DMSO, 0 = benzethonium chloride kill control)
How it was run: as §1

Row | SMILES | normalised response (BT-474 [1]) [%] | normalised response (BT-549 [2]) [%] | normalised response (CAL-120 [3]) [%] | normalised response (CAL-148 [4]) [%] | normalised response (CAL-51 [5]) [%] | normalised response (CAL-85-1 [6]) [%] | normalised response (DU-4475 [7]) [%] | normalised response (HCC1143 [8]) [%] | normalised response (HCC1599 [9]) [%] | normalised response (HDQ-P1 [10]) [%] | normalised response (Hs578T [11]) [%] | normalised response (MCF-10A [12]) [%] | normalised response (MDA-MB-231 [13]) [%] | normalised response (MDA-MB-436 [14]) [%] | normalised response (MDA-MB-453 [15]) [%] | normalised response (MDA-MB-468 [16]) [%] | normalised response (MFM-223 [17]) [%] | normalised response (BT-474 [18]) [%] | normalised response (BT-549 [19]) [%] | normalised response (CAL-120 [20]) [%] | normalised response (CAL-148 [21]) [%] | normalised response (CAL-51 [22]) [%] | normalised response (CAL-85-1 [23]) [%] | normalised response (DU-4475 [24]) [%] | normalised response (HCC1143 [25]) [%] | normalised response (HCC1599 [26]) [%] | normalised response (HCC1937 [27]) [%] | normalised response (HDQ-P1 [28]) [%] | normalised response (Hs578T [29]) [%] | normalised response (MCF-10A [30]) [%] | normalised response (MDA-MB-231 [31]) [%] | normalised response (MDA-MB-436 [32]) [%] | normalised response (MDA-MB-453 [33]) [%] | normalised response (MDA-MB-468 [34]) [%] | normalised response (MFM-223 [35]) [%] | normalised response (SK-BR-3) [%] | normalised response (HCC1937 [36]) [%]
1 | Cn1c(Nc2ccc(C(F)(F)F)cc2)nc2cc(Oc3ccnc(-c4ncc(C(F)(F)F)[nH]4)c3)ccc21 [RAF265] (10 nM) | 96.2 | 98.1 | 101 | 103 | 92.7 | 106 | 103 | 116 | 107 | 52.6 | 98 | 64.3 | 104 | 90.1 | 108 | 158 | 103 | 107 | 99.5 | 107 | 113 | 83.3 | 99.6 | 105 | 102 | 116 | 100 | 99.2 | 106 | 118 | 110 | 109 | 106 | 102 | 105 | 108 | 
2 | CS(=O)(=O)c1ccc(C2=C(c3ccccc3)C(=O)OC2)cc1 [Rofecoxib] (100 nM) | 104 | 95.7 | 104 | 101 | 111 | 107 | 108 | 98.7 | 101 |  | 103 | 88.5 | 117 | 104 | 106 | 118 | 88.2 | 101 | 106 | 104 | 109 | 105 | 102 | 102 | 108 | 99 | 95.8 | 98.7 | 109 | 114 | 106 | 105 | 108 | 104 | 104 | 110 | 68.7
3 | CN(N=O)C(=O)N[C@@H](C=O)[C@@H](O)[C@H](O)[C@H](O)CO [Streptozocin] (100 nM) | 103 | 107 | 107 |  | 105 | 107 | 105 | 114 | 104 |  | 52.8 | 64.2 | 113 | 111 | 104 | 124 | 75.2 | 102 | 100 | 109 | 107 | 106 | 104 | 102 | 106 | 104 | 99.8 | 107 | 109 | 109 | 112 | 101 | 103 | 98.8 | 103 | 102 | 73.6
4 | Oc1nc(-c2ccc(C(F)(F)F)cc2)nc2c1CSCC2 [XAV-939] (100 nM) | 101 | 98.8 | 101 | 99.6 | 90.2 | 111 | 102 | 108 | 101 |  | 109 | 95.1 | 100 | 102 | 105 | 130 | 96.6 | 93.2 | 103 | 96.3 | 101 | 77.1 | 99.6 | 99.8 | 104 | 92.3 | 92.9 | 106 | 101 | 98.5 | 90.9 | 102 | 98.2 | 92 | 97 | 99.1 | 104
